# Test results from patent US10660900B2 (priority 2014, dated 2020).
# Where “and” joins values, the source holds several entries; their conditions need not be identical. Equal values may be shown once. Read-outs that look alike come from different tables or passages of the source.
# Key:
# [1] = Single ascending oral dose pharmacokinetics of noribogaine in healthy volunteers (plasma and urine, LCMSMS); settings: for CL/F: mean (SD), n = 6
# [2] = target: calf OPRM (Bos taurus, UniProt P79350); settings: cited from earlier work; for Ki: read-out: Ki
# [3] = target: T1, human OPRM (Homo sapiens, UniProt P35372); assay: biochemical; type: binding; design: expressed in transfected cells; host or cells: CHO-K1 (cell line provided by Dr. Toll, Torrey Pines Institute); membranes prepared in house
# [4] = target: T1, human OPRM; type: cell-based; design: host or cells: CHO-K1
# [5] = target: T2, OPRK (Homo sapiens, UniProt P41145); assay: biochemical; design: expressed in transfected cells; host or cells: CHO-K1
# [6] = QT interval in opioid-dependent patients; type: in vivo, human; settings: 60, 120, 180 mg; first 24 hours; correlated with serum concentration
# Experimental: Patients' QT intervals were evaluated at regular time points throughout the study. […] A goodness-of-fit plot for the observed and predicted relation between noribogaine plasma levels and ΔΔQTc1 is provided in FIG. 9C.
# [7] = target: T2, OPRK; assay: cell-based; design: host or cells: CHO-K1
# [8] = target: T2, OPRK; assay: Bias quantification G-protein/Beta-arrestin2; design: expressed in transfected cells; host or cells: CHO-K1
# Experimental: Coupling efficiency (e-coupling) values indicated the relationship between the apparent binding affinity Ki versus the apparent functional potency EC50 of a given agonist ligand and used the equation pKi-pEC50. […] For inhibitory ligands, e-signal was calculated using maximal level of inhibition (Imax) normalized from 0 (basal, buffer) to 1 (agonist without inhibitor). Bias-coupling (quantification of pathway bias) was evaluated by subtracting the EC50 or the Ke issued from the G-protein pathway assays by those issued from β-arrestin pathway assays for a given ligand and in a linear (nM) scale. Bias-efficacy in favor of the G-protein pathway was evaluated by dividing the functional activation and the functional inhibition maximum responses (e-signal) from the G-protein pathway by the beta-arrestin pathway assays for a given ligand.
# [9] = target: calf OPRK (Bos taurus, UniProt Q2KIP6); settings: cited from earlier work
# calf OPRK, sequence (Q2KIP6 whole entry): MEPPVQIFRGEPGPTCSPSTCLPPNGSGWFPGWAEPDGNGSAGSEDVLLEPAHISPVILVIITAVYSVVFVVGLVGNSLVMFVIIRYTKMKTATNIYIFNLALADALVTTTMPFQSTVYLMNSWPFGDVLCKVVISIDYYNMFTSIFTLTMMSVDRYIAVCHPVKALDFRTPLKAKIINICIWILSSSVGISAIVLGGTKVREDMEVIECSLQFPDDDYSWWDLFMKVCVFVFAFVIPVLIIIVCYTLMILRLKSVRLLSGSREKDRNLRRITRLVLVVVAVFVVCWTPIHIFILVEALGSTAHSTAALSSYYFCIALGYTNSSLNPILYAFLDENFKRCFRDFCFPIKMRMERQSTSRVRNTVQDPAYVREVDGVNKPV
# T1 sequence (P35372 whole entry): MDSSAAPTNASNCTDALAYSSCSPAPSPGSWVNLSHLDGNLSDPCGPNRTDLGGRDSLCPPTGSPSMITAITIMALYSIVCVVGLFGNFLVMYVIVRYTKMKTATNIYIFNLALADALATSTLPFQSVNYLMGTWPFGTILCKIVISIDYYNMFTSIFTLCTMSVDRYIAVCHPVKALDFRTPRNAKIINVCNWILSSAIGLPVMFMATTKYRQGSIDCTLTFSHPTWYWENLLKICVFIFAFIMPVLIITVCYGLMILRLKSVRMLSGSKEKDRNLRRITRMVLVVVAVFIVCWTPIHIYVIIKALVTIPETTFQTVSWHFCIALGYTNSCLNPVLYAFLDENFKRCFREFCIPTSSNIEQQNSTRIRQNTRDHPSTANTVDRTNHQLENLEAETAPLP
# T2 sequence (P41145 whole entry): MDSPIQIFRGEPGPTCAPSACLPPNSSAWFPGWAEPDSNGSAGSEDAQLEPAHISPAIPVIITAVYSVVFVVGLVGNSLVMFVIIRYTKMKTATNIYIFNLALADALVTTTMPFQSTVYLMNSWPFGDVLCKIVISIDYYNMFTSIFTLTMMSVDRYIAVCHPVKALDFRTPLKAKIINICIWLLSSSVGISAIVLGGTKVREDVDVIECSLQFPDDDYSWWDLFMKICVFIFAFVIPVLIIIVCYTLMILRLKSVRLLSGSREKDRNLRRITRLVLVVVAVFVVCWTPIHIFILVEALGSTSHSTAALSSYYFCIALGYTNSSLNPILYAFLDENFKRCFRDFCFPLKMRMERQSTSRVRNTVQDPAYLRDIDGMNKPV
# calf OPRM, sequence (P79350 whole entry): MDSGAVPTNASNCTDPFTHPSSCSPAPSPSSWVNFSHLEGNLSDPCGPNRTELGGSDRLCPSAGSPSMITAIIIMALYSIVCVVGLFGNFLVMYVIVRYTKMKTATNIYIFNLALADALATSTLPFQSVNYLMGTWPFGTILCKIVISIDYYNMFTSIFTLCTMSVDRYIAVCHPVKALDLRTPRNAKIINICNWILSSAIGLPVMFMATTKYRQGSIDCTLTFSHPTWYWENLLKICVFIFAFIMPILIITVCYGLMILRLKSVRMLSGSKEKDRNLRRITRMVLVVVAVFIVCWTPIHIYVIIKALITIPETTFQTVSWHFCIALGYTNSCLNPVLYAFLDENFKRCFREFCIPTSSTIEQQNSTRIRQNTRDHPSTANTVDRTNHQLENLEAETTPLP
structure (smiles),measurement,setting,value
"CC[C@H]1CC2C[C@H]3c4[nH]c5ccc(O)cc5c4CCN(C2)C13 [Noribogaine, noribogaine]",CL/F,[1]; 3 mg single oral noribogaine,41.4 (7.0) L/h
same,CL/F,[1]; 10 mg single oral noribogaine,42.3 (12.0) L/h
same,CL/F,[1]; 30 mg single oral noribogaine,46.9 (16.4) L/h
same,CL/F,[1]; 60 mg single oral noribogaine,34.0 (11.4) L/h
same,dose relation of Cmax and AUC,[1]; 3-60 mg single oral doses,increased linearly with dose
same,Volume of distribution,[1]; across dose groups,1417 to 3086 L
same,time of peak concentrations after oral noribogaine dosing,"[1]; plasma, across dose groups",2 to 3 h
same,Ki,[2]; calf OPRM,1.52 µM
same,pKi,"[2]; calf receptor, literature",5.6
same,Ki,"[2]; calf receptor, literature",2.66 µM
same,pKi,[3],5.8
same,Efficacy,[4],3%
same,Efficacy (inhibition),[4],−100~ %
same,agonism of β-Arrestin-2 recruitment at OPRM,[4],not an agonist at OPRM
same,e-coupling (pKi-pKe),[4],~1.10
same,inhibition of agonist response,[4],60-100%
same,pEC50,[4],5.9
same,Efficacy (Emax),[5],70%
same,Efficacy (inhibition),[5],−30% and −25%
same,e-coupling (pKi-pEC50),[5],1.08
same,"e-coupling, G-protein Pathway",[5],1.72 and 1.08
same,own reduced signal level to which rival agonist signal is leveled down,[5],70%
same,pEC50,[5],5.1
same,Ki,[5]; Ke,12 µM and 24 µM
same,EC50,[5]; read-out: EC50,8.75 µM and 8.7 µM
same,Emax,[5]; read-out: Efficacy (Emax),72 ± 3.8%
same,QT interval prolongation (ΔQTcI),[6],dose-dependent increase in QT interval prolongation
same,EC50,[7],0.265 µM
same,e-coupling (pKi-pEC50),[7]; Activation,−0.43
same,"e-coupling, Beta-Arrestin2 Pathway",[7]; Activation,−0.43
same,"e-signal, Beta-Arrestin2 Pathway",[7]; Activation,0.13
same,pEC50,[7]; Activation,6.6
same,Emax,"[7]; CHO-K1, read-out: Efficacy (Emax)",12.6 ± 3%
same,inhibition of agonist response,[7]; Dynorphin A at EC80,~60%
same,"e-coupling, Beta-Arrestin2 Pathway",[7]; Inhibition,−0.44
same,"e-signal, Beta-Arrestin2 Pathway",[7]; Inhibition,0.60
same,e-coupling (pKi-pKe),[7]; inhibitory component,−0.44
same,Efficacy (inhibition),[7]; inhibitory component against Dynorphin A,−60~ %
same,efficacy bias relative to 6′GNTI,[8],2.4 ×
same,"Bias-coupling, Bias G-protein/Beta-arrestin2",[8]; Activation,32
same,"Bias-efficacy, Bias G-protein/Beta-arrestin2",[8]; Activation,0.59
same,"Bias-coupling, Bias G-protein/Beta-arrestin2",[8]; Inhibition,144
same,"Bias-efficacy, Bias G-protein/Beta-arrestin2",[8]; Inhibition,−0.35
same,Ki,[9]; calf OPRK,0.96 µM
same,pKi,"[9]; calf receptor, literature",6.0
